According to patent publication US8742106B2 (Novartis AG, priority 2009, dated 2014):

Tests used:
human orexin 1 receptors [1] = molecular target: T1, human orexin 1 receptors (Homo sapiens (Human), UniProt O43613); test: Radioligand Binding Assay II ([3H]-SB649868 competition, cell membranes); conditions: read-out: binding II hOx1R Kd
Protocol: (§1) Radioligand Binding Assay II
(§2) For crude cell membrane preparations, cells (CHO, Chinese hamster ovary or HEK, human embryonic kidney) expressing human orexin 1 or human orexin 2 receptors, were washed with HEPES (10 mM, pH 7.5), scraped off the culture plates with the same buffer, and centrifuged at 4° C. for 5 min at 2500×g. The cell pellet was either stored at −80° C. or used directly. Before the experiments, cell membranes were re-suspended in binding assay buffer (10 mM HEPES, 0.5% (w/v) bovine serum albumin, pH 7.5) by homogenisation with a Polytron homogeniser at 50 Hz for 20 s. Cell membranes were also used as made available by commercial providers.
(§3) Bound radioactivity was measured, and data were analysed with the program XLFIT or Graphpad Prism. Protein concentration was determined according to the Bradford/BioRad Protein Assay Kit.
(§4) In competition experiments, cell homogenates (150 μl) were incubated in assay buffer (10 mM HEPES, pH 7.5, 0.5% (w/v) bovine serum albumin, 5 mM MgCl2, 1 mM CaCl2, and tween 0.05%) for 1 h at room temperature with about 1 nM of the radioligand [^3H]-SB649868, 66 Ci/mmole, 50 μl), and with various concentrations of compounds of the invention (50 μl) in triplicates; non-specific binding was determined in the presence of almorexant (10 μM). Reactions were terminated by vacuum filtration, 3 washes of ice cold wash buffer (Tris-HCl pH 7.4/10 mM, with NaCl 154 mM). Competition data is expressed in Table 2 as Kd [μM].

human orexin 2 receptors [2] = molecular target: T2, human orexin 2 receptors (Homo sapiens (Human), UniProt O43614); test: as above; conditions: read-out: binding II hOx2R Kd
Protocol: as §1, §2, §3
as §4, with “mM).” for “mM). Competition data is expressed in Table 2 as Kd [μM].”

human orexin 1 receptors [3] = molecular target: T1, human orexin 1 receptors; test: Calcium Accumulation in Cells (FLIPR), antagonism of orexin A; format: cell-based; conditions: antagonism of orexin A, Cheng-Prusoff corrected; read-out: FLIPR hOx1R Ki
human orexin 2 receptors [4] = molecular target: T2, human orexin 2 receptors; test: as above; format: cell-based; conditions: antagonism of orexin A, Cheng-Prusoff corrected; read-out: FLIPR hOx2R Ki
Method in brief: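 Antagonism was measured as block of orexin A-evoked Ca²⁺ fluorescence (FLIPR), with orexin A added one hour after test compound (usually 10^−9–10^−5 M), which was first read alone for agonist activity. Human orexin 2 receptor cells were dye-loaded with 2 μM Fluo4-AM and 0.1 mM probenecid for 1 h.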

T2 sequence (O43614 whole entry): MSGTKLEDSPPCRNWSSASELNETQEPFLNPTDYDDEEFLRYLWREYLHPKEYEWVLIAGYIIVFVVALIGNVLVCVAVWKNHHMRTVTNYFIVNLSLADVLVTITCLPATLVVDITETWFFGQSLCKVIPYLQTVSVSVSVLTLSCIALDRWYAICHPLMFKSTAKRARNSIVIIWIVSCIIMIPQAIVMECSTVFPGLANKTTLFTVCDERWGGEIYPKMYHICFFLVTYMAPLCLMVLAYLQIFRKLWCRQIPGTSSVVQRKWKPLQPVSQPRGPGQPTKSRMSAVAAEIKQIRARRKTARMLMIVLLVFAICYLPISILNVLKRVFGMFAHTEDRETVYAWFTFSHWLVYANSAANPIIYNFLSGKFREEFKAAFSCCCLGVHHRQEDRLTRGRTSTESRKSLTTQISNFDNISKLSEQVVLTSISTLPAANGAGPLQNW
T1 sequence (O43613 whole entry): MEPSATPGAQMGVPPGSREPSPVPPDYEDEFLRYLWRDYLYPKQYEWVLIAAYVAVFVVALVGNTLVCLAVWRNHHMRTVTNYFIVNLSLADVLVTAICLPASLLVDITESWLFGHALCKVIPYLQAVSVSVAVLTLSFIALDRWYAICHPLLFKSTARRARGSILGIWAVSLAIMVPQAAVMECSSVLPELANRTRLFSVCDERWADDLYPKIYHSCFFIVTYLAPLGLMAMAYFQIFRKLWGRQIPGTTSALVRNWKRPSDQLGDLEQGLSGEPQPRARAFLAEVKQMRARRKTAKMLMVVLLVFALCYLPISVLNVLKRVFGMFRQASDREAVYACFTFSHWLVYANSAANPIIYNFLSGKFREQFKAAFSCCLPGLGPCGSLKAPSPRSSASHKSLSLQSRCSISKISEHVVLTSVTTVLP

SMILES | Kd (human orexin 1 receptors [1]) [nM] | Kd (human orexin 2 receptors [2]) [nM] | Ki (human orexin 1 receptors [3]) [nM] | Ki (human orexin 2 receptors [4]) [nM]
COc1ccc2c(c1)CC[C@@H]2NC(=O)C(C)Oc1cc(C)c2c(C3CC3)nn(C)c2n1 (single isomer, unassigned) [Example 6.71, (R or S)-2-(3-cyclopropyl-1,4-dimethyl-1H-pyrazolo[3,4-b]pyridin-6-yloxy)-N-((S)-5-methoxy-2,3-dihydro-1H-inden-1-yl)propanamide] | 589 | 95 | 348 | 55
Cc1ccc([C@H](C)NC(=O)COc2cc(C)c3c(-c4ncccc4F)nn(C)c3n2)cc1 [Example 4.1, (S)-2-((3-(3-fluoropyridin-2-yl)-1,4-dimethyl-1H-pyrazolo[3,4-b]pyridin-6-yl)oxy)-N-(1-(p-tolyl)ethyl)acetamide] | 27 | 22 | 133 | 35
Cc1ccc([C@H](C)NC(=O)COc2cc(C)c3c(-c4ncco4)nn(C)c3n2)cc1 [Example 4.2, (S)-2-(1,4-dimethyl-3-(oxazol-2-yl)-1H-pyrazolo[3,4-b]pyridin-6-yloxy)-N-(1-p-tolylethyl)acetamide] | 10 | 17 | 67 | 32
Cc1ccc([C@H](C)NC(=O)COc2cc(C)c3c(-c4cnn(C)c4)nn(C)c3n2)cc1 [Example 4.6, (S)-2-(1,4-dimethyl-3-(1-methyl-1H-pyrazol-4-yl)-1H-pyrazolo[3,4-b]pyridin-6-yloxy)-N-(1-p-tolylethyl)acetamide] | 76 | 82 | 247 | 89
Cc1ccc([C@H](C)NC(=O)COc2cc(C)c3c(-c4ncccn4)nn(C)c3n2)cc1 [Example 4.7, (S)-2-(1,4-dimethyl-3-(pyrimidin-2-yl)-1H-pyrazolo[3,4-b]pyridin-6-yloxy)-N-(1-p-tolylethyl)acetamide] | 11 | 13 | 4 | 9
Cc1ccc([C@H](C)NC(=O)COc2cc(C)c3c(-c4cnccn4)nn(C)c3n2)cc1 [Example 4.8, (S)-2-(1,4-dimethyl-3-(pyrazin-2-yl)-1H-pyrazolo[3,4-b]pyridin-6-yloxy)-N-(1-p-tolylethyl)acetamide] | 20 | 22 | 52 | 15
Cc1ccc([C@H](C)NC(=O)COc2cc(C)c3c(-c4ccc(C)cn4)nn(C)c3n2)cc1 [Example 4.9, (S)-2-(1,4-dimethyl-3-(5-methylpyridin-2-yl)-1H-pyrazolo[3,4-b]pyridin-6-yloxy)-N-(1-p-tolylethyl)acetamide] | 14 | 19 | 12 | 5
Cc1ccc([C@H](C)NC(=O)COc2cc(C)c3c(-c4cscn4)nn(C)c3n2)cc1 [Example 4.10, (S)-2-(1,4-dimethyl-3-(thiazol-4-yl)-1H-pyrazolo[3,4-b]pyridin-6-yloxy)-N-(1-p-tolylethyl)acetamide] | 5 | 6 | 5 | 5
Cc1ccc([C@H](C)NC(=O)COc2cc(C)c3c(-c4nc(C)cs4)nn(C)c3n2)cc1 [Example 5.1, (S)-2-((1,4-dimethyl-3-(4-methylthiazol-2-yl)-1H-pyrazolo[3,4-b]pyridin-6-yl)oxy)-N-(1-(p-tolyl)ethyl)acetamide] | 4 | 3 | 10 | 10
Cc1ccc([C@H](C)NC(=O)COc2cc(C)c3c(-c4nccs4)nn(C)c3n2)cc1 [Example 5.2, (S)-2-(1,4-dimethyl-3-(thiazol-2-yl)-1H-pyrazolo[3,4-b]pyridin-6-yloxy)-N-(1-p-tolylethyl)acetamide] | 3 | 3 | 6 | 1
COc1ccnc(-c2nn(C)c3nc(OCC(=O)N[C@@H](C)c4ccc(C)cc4)cc(C)c23)n1 [Example 5.3, (S)-2-(3-(4-methoxypyrimidin-2-yl)-1,4-dimethyl-1H-pyrazolo[3,4-b]pyridin-6-yloxy)-N-(1-p-tolylethyl)acetamide] | 7 | 19 | 10 | 39
Cc1ccc([C@H](C)NC(=O)COc2cc(C)c3c(-c4cncs4)nn(C)c3n2)cc1 [Example 5.4, (S)-2-(1,4-dimethyl-3-(thiazol-5-yl)-1H-pyrazolo[3,4-b]pyridin-6-yloxy)-N-(1-p-tolylethyl)acetamide] | 46 | 26 | 179 | 11
COc1nc(-c2nn(C)c3nc(OCC(=O)N[C@@H](C)c4ccc(C)cc4)cc(C)c23)cs1 [Example 5.5, (S)-2-(3-(2-methoxythiazol-4-yl)-1,4-dimethyl-1H-pyrazolo[3,4-b]pyridin-6-yloxy)-N-(1-p-tolylethyl)acetamide] | 15 | 37 | 21 | 28
Cc1ccc([C@H](C)NC(=O)COc2cc(C)c3c(-c4ncc(C)s4)nn(C)c3n2)cc1 [Example 5.6, (S)-2-(1,4-dimethyl-3-(5-methylthiazol-2-yl)-1H-pyrazolo[3,4-b]pyridin-6-yloxy)-N-(1-p-tolylethyl)acetamide] | 4 | 3 | 6 | 5
Cc1ccc([C@H](C)NC(=O)COc2cc(C)c3c(-c4cccc(C)n4)nn(C)c3n2)cc1 [Example 5.7, (S)-2-(1,4-dimethyl-3-(6-methylpyridin-2-yl)-1H-pyrazolo[3,4-b]pyridin-6-yloxy)-N-(1-p-tolylethyl)acetamide] | 10 | 21 | 46 | 56
Cc1ccc2c(n1)CC[C@@H]2NC(=O)COc1cc(C(F)F)c2c(C3CC3)nn(C)c2n1 [Example 6.2, (S)-2-(3-cyclopropyl-4-(difluoromethyl)-1-methyl-1H-pyrazolo[3,4-b]pyridin-6-yloxy)-N-(2-methyl-6,7-dihydro-5H-cyclopenta[b]pyridin-5-yl)acetamide] | 61 | 75 | 284 | 50
Cc1ccc(C(C)(C)NC(=O)COc2cc(C)c3c(C4CC4)nn(C)c3n2)cc1 [Example 6.6, 2-(3-cyclopropyl-1,4-dimethyl-1H-pyrazolo[3,4-b]pyridin-6-yloxy)-N-(2-p-tolylpropan-2-yl)acetamide] | 1010 | 138 | 606 | 47
COc1ccc([C@H](C)NC(=O)COc2cc(C(F)F)c3c(C4CC4)nn(C)c3n2)cc1 [Example 6.7, (S)-2-(3-cyclopropyl-4-(difluoromethyl)-1-methyl-1H-pyrazolo[3,4-b]pyridin-6-yloxy)-N-(1-(4-methoxyphenyl)ethyl)acetamide] | 36 | 27 | 68 | 21
Cc1ccc([C@H](C)NC(=O)COc2cc(C(F)F)c3c(C4CC4)nn(C)c3n2)cc1 [Example 6.8, (S)-2-(3-cyclopropyl-4-(difluoromethyl)-1-methyl-1H-pyrazolo[3,4-b]pyridin-6-yloxy)-N-(1-p-tolylethyl)acetamide] | 22 | 19 | 14 | 5
Cc1ccc([C@H](C)NC(=O)COc2cc(C(F)(F)F)c3c(C4CC4)nn(C)c3n2)cc1 [Example 6.13, (S)-2-(3-cyclopropyl-1-methyl-4-(trifluoromethyl)-1H-pyrazolo[3,4-b]pyridin-6-yloxy)-N-(1-p-tolylethyl)acetamide] | 44 | 14 | 52 | 6
COc1ccc(C(C)NC(=O)COc2cc(C(F)(F)F)c3c(C4CC4)nn(C)c3n2)cn1 (stereo not drawn) [Example 6.14, 2-(3-cyclopropyl-1-methyl-4-(trifluoromethyl)-1H-pyrazolo[3,4-b]pyridin-6-yloxy)-N-(1-(6-methoxypyridin-3-yl)ethyl)acetamide] | 428 | 141 | 523 | 72
COc1ccc([C@H](C)NC(=O)COc2cc(C)c3c(-c4cc(OC)cc(OC)c4)nn(C)c3n2)cc1 [Example 6.36, (S)-2-(3-(3,5-dimethoxyphenyl)-1,4-dimethyl-1H-pyrazolo[3,4-b]pyridin-6-yloxy)-N-(1-(4-methoxyphenyl)ethyl)acetamide] | 19 | 498 |  | 323
